Results as given in patent publication US20030229134A1, “Methods for stimulating nervous system regeneration and repair by inhibiting phosphodiesterase type 4” (priority 2000, published 2003).

Tests used:
[1] = system: DRG neurons on MAG-expressing CHO cells; assay: Continuous subcutaneous rolipram delivery by minipumps to P30 rats; neurite outgrowth of isolated DRG neurons on MAG-expressing CHO cells; type: in vivo, rat; conditions: for axonal outgrowth in the presence of MAG and on control CHO cells: minipump 0.4 umol/kg/hour
Procedure: Rolipram was delivered subcutaneously with ALZET 2001 minipumps. Minipumps were inserted subcutaneously under the skin of the animals' backs. Two minipumps were used for each animal; the combined flow rate was 2 ul/hour. Rolipram was dissolved in DMSO and sterile saline was added to adjust the doses of rolipram that were released from minipumps every hour. After 24 hours of treatment, DRG neurons were isolated from control and treated animals and plated onto a monolayer of MAG-expressing CHO cells or a monolayer of control CHO cells. Neurons were cultured overnight before being fixed and immunostained for GAP43 to visualize the neurites. The length of the longest neurite per neuron from 180-200 neurons was measured. Results are expressed as a percentage of growth of the neurons isolated from control animals and are shown as the average length+/−SEM presented as percentage of growth on control cells.
In order to determine whether longer continuous treatment with a PDE4 inhibitor would increase the relief of inhibition of neurite outgrowth by myelin or MAG, rolipram was administered subcutaneously by minipump (0.4 umol/kg/hour). After 1, 2 or 3 days of continuous rolipram treatment, DRG neurons were isolated from control and treated animals and plated onto a monolayer of MAG-expressing CHO cells or a monolayer of control CHO cells. Neurons were cultured overnight before being fixed and immunostained for GAP43 to visualize the neurites. The length of the longest neurite per neuron from 180-200 neurons was measured. Results are expressed as a percentage of growth of the neurons isolated from control animals and are shown as the average length+/−SEM, presented as a percentage of growth on control cells.

mice = conditions: cited from earlier work
[2] = system: animal model for multiple sclerosis; conditions: cited from earlier work
rat model of arthritis = conditions: higher concentrations (5-10 and 20 umol/kg), rats; cited from earlier work
[3] = system: cerebellar neurons on purified, immobilized myelin; assay: Priming of cerebellar neurons with rolipram; neurite outgrowth on purified, immobilized myelin; type: cell-based, rat; conditions: priming with rolipram 0.25 uM, FIG. 2B
Procedure: (§1) Isolated cerebellar neurons in SATO media (prepared as in Example 1) were plated onto poly-L-lysine-coated dishes at 1×10^6 cells/dish. Where indicated, either BDNF at a concentration of 200 ng/ml, or rolipram at a concentration 0.1 uM or 0.25 uM (all from Sigma) was added. After culture for 18 hours (termed priming), neurons were removed with 0.1% trypsin. Trypsinization was stopped by adding 5 ml of DMEM containing 10% FCS. The primed neurons were centrifuged at 800 rpm for 6 min and resuspended in SATO media. The concentration of cells were adjusted to 6×10^4 cells/ml. […] Myelin was prepared as described previously (Cai et al., 1999) from rat CNS white matter. Neurons were cultured overnight before being fixed and immunostained for GAP43 to visualize the neurites. The length of the longest neurite per neuron, from 180-200 neurons, was measured. Results are presented as the average length+/−SEM in micrometers (um). (See, e.g., U.S. Pat. Nos. 5,932,542 and 6,203,792).

[4] = system: cerebellar neurons and DRG neurons on MAG-expressing CHO cells; assay: Subcutaneous rolipram injections into P12 rats; neurite outgrowth of isolated neurons on MAG-expressing CHO cells; type: in vivo, rat
Procedure: (§2) In order to determine whether a PDE4 specific inhibitor could be used to prime neurons in vivo and prevent inhibition of neurite outgrowth by myelin and MAG, rolipram was injected subcutaneously into P12 and P30 rats every 3 hours for 24 hours. For all experiments, rolipram was dissolved in DMSO and sterile saline was added to adjust the concentrations. The final volume of the rolipram solution was 0.2 ml for each injection. At each time point, a single rolipram injection was given. Rolipram was injected subcutaneously with insulin syringes (Becton Dickinson 1 ccU-100 insulin Syringe) under the skin of the rat's neck (for all experiments) and in various other regions (only for first experiment using P12 rats). Control animals were injected with a 0.2 ml mixture of DMSO and sterile saline without rolipram, following the same schedule.
Rolipram was injected subcutaneously into P12 rats at concentrations of 0, 7.5, 20, 25 or 40 nmol/kg every 3 hours for 24 hours before sacrificing. […] Cerebellar neurons were isolated as described in Example 1. Dorsal root ganglia (DRG) neurons were isolated as described previously (De Bellard et al., 1996). Briefly, ganglia were removed from the animals and incubated in 5 ml of SATO media containing 0.025% of trypsin and 0.15% of collagenase type I (Worthington) for 1 hour at 37° C. The ganglia were triturated and trypsinization was stopped by adding 5 ml of DMEM containing 10% FCS. Ganglia were centrifuged at 800 rpm for 6 min, and resuspended in SATO. Neurons were cultured overnight on CHO monolayers as described in Example 1 before being fixed and immunostained for GAP43 to visualize the neurites, as described in Example 1. As a positive control, some neurons from control animals were also cultured overnight in the presence of 1 mM dbcAMP. The length of the longest neurite per neuron, from 180-200 neurons, was measured and results are the average length+/−SEM. Results are expressed as a percentage of growth of the neurons isolated from control animals, treated with saline/DMSO injections and plated on control CHO cells, without dbcAMP or rolipram treatment.

[5] = system: rats with complete spinal cord transection; assay: Complete transection of the spinal cord with Schwann cell bridge; BBB test of hindlimb locomotion; type: in vivo, rat
Excerpt: (§3) A “BBB Score” is the result of a test developed by Basso, Beattie and Bresnahan as a modifed 21-point open field locomoter scale on which to measure the extent of recovery of motor function in rats with after spinal cord injury. See, e.g, Basso et al., J. Neurotrauma 13(7):343-59 (1996); Beattie et al. (1997), herein incorporated by reference.
Adult rat spinal cords were completely transected at the T8 cord level and the next caudal segment was removed (Xu et al. (1997), herein incorporated by reference). Schwann cells were purified in culture from adult rat sciatic nerve, suspended in Matrigel: DMEM (30:70), and drawn into 8 mm long polymeric guidance channels at a density of 120×10^6 cells/ml. Xu et al. (1997). Each cut stump was inserted 1 mm into the channel. At the time of transection, a Schwann cell bridge was implanted at the injury site and rolipram was delivered subcutaneously via minipump at 0.07 umol/kg/hour for two weeks as described in Example 3B. As a negative control, animals were delivered saline only. As a positive control, 5 ul of 10 mM dbcAMP was infused in the proximal and distal stump of the lesion in animals. Animals were assessed on a weekly basis for hindlimb locomotion, which is a measure of their motor recovery, using the BBB test.

[6] = system: cerebellar neurons on MAG-expressing Chinese hamster ovary (CHO) cells; assay: Direct treatment of cerebellar neurons with rolipram; neurite outgrowth on MAG-expressing CHO cells; type: cell-based, rat
Procedure: Cerebellar neurons from P5 rats were isolated as described previously (Cai et al., 1999) Briefly, cerebellum was treated with 0.025% of trypsin, triturated and incubated for 10 min at 37° C. Trypsinization was stopped by adding an equal amount of DMEM containing 10% fetal calf serum (FCS). Cells were centrifuged at 800 rpm for 5 min. The cells were resuspended to a single-cell suspension in 2 ml of SATO (see Cai et al., 1999, herein incorporated by reference). The concentration of cells were adjusted to 6×10^4 cells/ml. […] Where indicated, dbcAMP (1 mM) or rolipram (0.1 uM, 0.25 uM, 0.5 uM or 1.0 uM) was added to the media. After 18 hours of culture, neurons were fixed and immunostained with a rabbit polyclonal antibody against […] (GAP43) to visualize the neurites. The length of the longest neurite of the first two hundred GAP43-positive neurons was determined using the Simple 32™ software (see Cai et al., 1999). The mean length of a neurite was determined and presented as the average length+/−SEM in micrometers (um). Results are expressed as a percentage of neurite length from neurons grown in the absence of dbcAMP or rolipram.

[7] = system: cerebellar neurons on MAG-expressing CHO cells; assay: Priming of cerebellar neurons with rolipram; neurite outgrowth on MAG-expressing CHO cells; type: cell-based, rat; conditions: BDNF 200 ng/ml
Procedure: as §1

[8] = system: DRG neurons on MAG-expressing CHO cells; assay: Subcutaneous rolipram injections into P30 rats; neurite outgrowth of isolated DRG neurons on MAG-expressing CHO cells; type: in vivo, rat
Procedure: as §2
In a second series of experiments, we injected increasing concentrations of rolipram subcutaneously into older animals (postnatal day 30; P30) every 3 hours for 24 hours and, as above, studied neurite outgrowth of isolated DRG neurons in the presence or absence of MAG.
DRG neurons were isolated from control and treated P30 animals and plated onto a monolayer of MAG-expressing CHO cells or a monolayer of control CHO cells. Neurons were cultured overnight before being fixed and immunostained for GAP43 to visualize the neurites, as described in Example 1. The length of the longest neurite per neuron from 180-200 neurons was measured. Results are expressed as a percentage of growth of the neurons isolated from control animals and are shown as the average length+/−SEM presented as a percentage of growth on control cells.
We next determined whether the effects of rolipram were time dependent. Rolipram (0.5 umol/kg) was administered by repeated subcutaneous injections to P30 rats for increasing amounts of time. DRG neurons were isolated from control and treated animals and plated onto a monolayer of MAG-expressing CHO cells or a monolayer of control CHO cells. Neurons were cultured overnight before being fixed and immunostained for GAP43 to visualize the neurites. The lengths of the longest neurite per neuron from 180-200 neurons were measured. Results are expressed as a percentage of growth of the neurons isolated from control animals and are shown as the average length+/−SEM presented as percentage of growth on control cells.

rats = conditions: cited from earlier work
[9] = system: rats with moderate spinal cord contusion; assay: Moderate contusive injury to the spinal cord; BBB test of hindlimb locomotion; type: in vivo, rat
Excerpt: as §3
Adult rat spinal cord were exposed and injured with a weight drop device (NYU). See Beattie et al. (1997) and Basso et al. (1996). At the same time as the injury was inflicted, rolipram was delivered subcutaneously via minipumps at 0.07 nmol/kg/hour for 2 weeks. One week after injury, Schwann cells, which had been grown and purified in culture, were injected into the lesion site along with 4 injections, each of 0.2 ul, of 1 mM dbcAMP. As a negative control, animals were injected with Schwann cells alone. Other animals were administered dbcAMP and Schwann cells. One group of animals was administered four injections, each of 0.2 ul, of 1 mM dbcAMP one week after injury. Another group was administered four injections, each of 0.2 ul, of 50 mM dbcAMP one week after injury. Another group was administered four injections, each of 0.2 ul, of 50 mM dbcAMP one day after injury. Animals were assessed on a weekly basis for hindlimb locomotion using the BBB test.

hippocampal slices = conditions: cited from earlier work

SMILES: COc1ccc(C2CNC(=O)C2)cc1OC1CCCC1 (stereo not shown) [rolipram]
- axonal outgrowth in the presence of MAG and on control CHO cells ([1]; 2 days): significantly promoted
- axonal outgrowth in the presence of MAG and on control CHO cells ([1]; 3 days): even further promoted
- optimal continuous dose for subsequent neuronal growth and regeneration ([1]; s.c. minipump, 0.4, 0.5, 0.7 umol/kg/hour tested): 0.4 µmol/kg/h
- inhibition of DRG neurons by MAG after 24 hours of continuous treatment ([1]; s.c. minipump, 24 hours): no longer inhibited by MAG
- memory improving effects (mice; 3.0 umol/kg): did not have memory improving effects
- side effects (mice; 0.1-3.0 umol/kg): No side effects
- performance in a hippocampus-dependent memory task (mice; mice, 0.1 umol/kg s.c.): improved the performance
- anti-inflammatory effect [2]: demonstrated
- side effects (rat model of arthritis): No side effects
- inhibition of axonal growth by myelin after priming [3]: overcomes inhibition
- subsequent inhibition of neuronal growth by MAG ([4]; P12 rats, 7.5 nmol/kg s.c. every 3 hours for 24 hours): effectively blocks
- inhibition of neuronal growth by MAG ([4]; P12 rats, 25 nmol/kg s.c. every 3 hours for 24 hours): essentially completely blocked
- most effective subcutaneous dose for relieving MAG inhibition ([4]; P12 rats, s.c. every 3 hours for 24 hours): 20 nmol/kg
- neurite length on control CHO cells ([4]; P12 rats, s.c. injections for 24 hours, control cells not expressing MAG): did not affect neurite length
- crossing of the blood brain barrier ([4]; inferred from effect on cerebellar (CNS) and DRG neurons after s.c. administration): crossed the blood brain barrier
- BBB score (motor recovery) ([5]; adult rats, complete transection at T8, Schwann cell bridge, minipump s.c. 0.07 umol/kg/hour for two weeks, vs saline): significantly increases
- BBB score compared with administration of dbcAMP ([5]; rolipram 0.07 umol/kg/hour s.c., dbcAMP 5 ul of 10 mM infused in the stumps): essentially the same result
- inhibition of axonal outgrowth by MAG ([6]; rolipram 0.25 uM-1.0 uM in media, 18 hours culture, P5 rat cerebellar neurons, FIG. 1): partially blocks
- efficiency of blocking the inhibition of axonal outgrowth by MAG compared to dibutyryl-cAMP ([6]; rolipram 0.5 uM, comparator dbcAMP 1 mM): 80%
- dose dependence of the effect on MAG inhibition of axonal outgrowth ([6]; rolipram 0.1-1.0 uM): dose-dependent
- blocking inhibition of axonal outgrowth by MAG after priming, compared with BDNF priming ([7]; priming 18 hours with rolipram 0.25 uM, FIG. 2): almost as effective as priming cerebellar neurons with BDNF
- length of neurites on monolayer of CHO cells expressing MAG, as % of length of neurons treated with BDNF ([7]; priming with rolipram 0.25 uM): 95%
- length of the neurites, 1, 2 and 3 days of treatment compared ([8]; 0.5 umol/kg intermittent s.c. injections every three hours): no significant difference
- length of the axons of DRG neurons, 24 hours treatment in comparison to 6 hours ([8]; 0.5 umol/kg repeated s.c. injections, FIG. 5): increased
- inhibition of axonal outgrowth by MAG ([8]; 0.1-2.0 umol/kg s.c. every 3 hours for 24 hours, FIG. 4): blocked (i.e., relieved) by rolipram in a dose-dependent manner
- most effective subcutaneous dose for relieving MAG inhibition ([8]; s.c. every 3 hours for 24 hours): 0.5 µmol/kg
- concentrations at which sedative effects were demonstrated (rats): 5 to 10 µmol/kg
- motor skill recovery as measured by the BBB score ([9]; adult rats, minipump s.c. 0.07 nmol/kg/hour for 2 weeks plus Schwann cells and 4 injections of 1 mM dbcAMP one week after injury, from 2 up to 7 weeks after injury): significantly improved
- BBB score achieved ([9]; continuous rolipram plus Schwann cells and dbcAMP, greater than 15 is scored as complete recovery): greater than 15
- basal cAMP levels (hippocampal slices; 1.0-3.0 umol/kg): Increased basal cAMP levels
- basal cAMP levels in hippocampal slices (hippocampal slices; up to 0.3 umol/kg): did not raise basal cAMP levels
